Results on seven molecules are retold here after paper PMC10184313, “Inhibition of Thiamine Diphosphate-Dependent Enzymes by Triazole-Based Thiamine Analogues” (ACS Medicinal Chemistry Letters, 2023).

One data set is described as follows: in vitro. In kind it is cell-based, human. The conditions noted are these: human. The procedure: (§1) Cell-based assays (Results)
(§2) Anti-plasmodial activity assay. This study used human malaria parasite P. falciparum strain 3D7 (chloroquine-sensitive) and the same strain expressing an extra copy of TPK with a GFP-tag ( PfTPK-GFP) generated as previously described. 9 The intraerythrocytic stage of the parasites were maintained essentially as previously described. 10 Compounds were tested at concentrations up to a highest final […]
(§3) were prepared in dimethyl sulfoxide (DMSO) followed by dilution in RPMI 1640 medium in the absence of thiamine or in the presence of 2.97 µM (or 297 µM) thiamine. The final concentration of DMSO that the parasites were exposed to never exceeded 0.05%. Two-fold serial dilutions were then performed, with each concentration tested in triplicate. The assay was performed as described 11 with some modifications. Experiments were initiated with parasites in the ring-stage, a parasitemia level of 0.5% and a haematocrit of 2%. Chloroquine (0.5 µM) was used as the positive control ( i.e. complete inhibition of parasite proliferation), and parasites maintained in the absence of any inhibitor represented 100% parasite proliferation. The final volume in each well was 200 µL. Plates were incubated at 37 °C, under an atmosphere of 96% nitrogen, 3% carbon dioxide and 1% oxygen. Parasite proliferation was measured by performing SYBR-Safe assay. 12 The concentration at which the compound suppresses […]
(§4) Excel and analysed by non-linear regression plot using GraphPad Prism. The data were averaged from three independent experiments.
(§5) Cytotoxicity assay. This study used HFF cells (human foreskin fibroblasts) as described 13 with some modifications. The HFF cells were seeded in 96-well plates at a density of about 13 x 10^4 cells/mL.
(§6) Plates were incubated at 37 °C in a humidified 5% carbon dioxide incubator for 96 h. A sample of the supernatant (150 µL) was then carefully aspirated from each well and discarded. The plates were then stored at -80 °C. SYBR- Safe assay was used. The plates were thawed, SYBR-Safe lysis solution (150 µL) was added to each well and mixed via pipetting to ensure the HFF cells were detached from the plate and lysed. The plates were then processed as described for the anti-plasmodial assay.

For the next data set, the system named is HFF cells. The data set is described as follows: in vitro. In kind it is cell-based, human. The conditions noted are these: IC50 (thiamine-free) vs HFF cytotoxicity. The procedure:
as §1, §2, §3, §4, §5, §6

Data set [1] has as its system P. falciparum 3D7 transfected with an empty plasmid. The experiment in a line: Anti-plasmodial activity, 3D7 transfected with an empty plasmid. The format is cell-based. The note with it: Plasmodium falciparum, 3D7, read-out: IC50 anti-plasmodial activity, empty plasmid. The procedure:
as §1, §2
as §3, with “Plates were incubated at 37 °C, under an atmosphere of 96% nitrogen, 3% carbon dioxide and 1% oxygen.” left out, “assay.” for “assay. 12 The concentration at which the compound suppresses”
(§7) Excel and analysed by non-linear regression plot using GraphPad Prism. […]

Data set [2] deals with P. falciparum 3D7 expressing PfTPK-GFP. The experiment in a line: Anti-plasmodial activity, 3D7 expressing PfTPK-GFP. The format is cell-based. The conditions noted are these: Plasmodium falciparum, 3D7, read-out: IC50 anti-plasmodial activity, PfTPK-GFP. The procedure:
as §1, §2
as §3, with “Plates were incubated at 37 °C, under an atmosphere of 96% nitrogen, 3% carbon dioxide and 1% oxygen.” left out, “assay.” for “assay. 12 The concentration at which the compound suppresses”
as §7

For another data set, the target named is T1, Z. mobilis PDC (Zymomonas mobilis subsp. mobilis, UniProt P06672).
T1 construct: made in house
T1 sequence (P06672 1-568): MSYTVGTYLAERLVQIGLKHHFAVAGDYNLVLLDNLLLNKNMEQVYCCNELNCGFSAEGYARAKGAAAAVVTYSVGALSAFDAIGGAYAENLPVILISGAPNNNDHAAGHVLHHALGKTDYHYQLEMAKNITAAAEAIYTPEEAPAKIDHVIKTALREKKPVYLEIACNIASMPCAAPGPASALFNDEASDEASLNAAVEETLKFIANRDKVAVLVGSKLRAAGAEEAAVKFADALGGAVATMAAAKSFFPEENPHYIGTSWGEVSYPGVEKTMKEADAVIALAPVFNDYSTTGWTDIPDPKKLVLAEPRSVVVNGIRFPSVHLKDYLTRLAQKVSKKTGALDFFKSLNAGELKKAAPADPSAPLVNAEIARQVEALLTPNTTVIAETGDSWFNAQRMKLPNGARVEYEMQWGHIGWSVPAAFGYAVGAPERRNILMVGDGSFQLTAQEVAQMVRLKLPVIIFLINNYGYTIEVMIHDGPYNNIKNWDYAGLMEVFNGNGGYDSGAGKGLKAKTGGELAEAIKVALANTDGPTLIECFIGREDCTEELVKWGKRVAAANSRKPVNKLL
The data set is described as follows: Z. mobilis PDC inhibitory activity assay (NADH consumption). In kind it is biochemical. The note with it: for Ki: Z. mobilis PDC, determined according to the KM for ThDP; for IC50: bacterial PDC (Zymomonas mobilis), [ThDP] 10 μM.

Some results are limits rather than exact numbers.

The term IC50 denotes the concentration that inhibits the measured activity by half. The molecule `Cc1ncc(Cn2cc(CCCn3cc(-c4ccc(F)cc4)nn3)nn2)c(N)n1` [Compound 16b] came in with an IC50 at 96 h in “in vitro” of over 200 µM.
In turn, `Cc1ncc(Cn2cc(CCCCn3cc(-c4ccc(F)cc4)nn3)nn2)c(N)n1` [Compound 16c] registered an IC50 at 96 h in “in vitro” of 48 ± 5 µM. The “Selectivity Index” value in the data set with HFF cells stood at 0.7.
Molecule `COc1ccc(-c2cn(CCc3cn(Cc4cnc(C)nc4N)nn3)nn2)cc1` [Compound 17a] returned a half-maximal inhibitory concentration (IC50) at 96 h in “in vitro” of over 200 µM.
`COc1ccc(-c2cn(CCCc3cn(Cc4cnc(C)nc4N)nn3)nn2)cc1` [Compound 17b]: 90 ± 5 µM corresponded to half-maximal inhibition in “in vitro” (IC50 at 96 h). Also, the “Selectivity Index” value in the data set with HFF cells came to 1.8.
Turning to `COc1ccc(-c2cn(CCCCc3cn(Cc4cnc(C)nc4N)nn3)nn2)cc1` [Compound 17c], half-maximal inhibition in “in vitro” (IC50 at 96 h) was put at 46 ± 7 µM. In the data set with HFF cells, the “Selectivity Index” value is given as 1.1. Moreover, the IC50 is 38 ± 7 µM in data set [1] and 44 ± 9 µM in data set [2].
One may read the Ki as the equilibrium dissociation constant of an inhibitor or competing ligand from its target. The low end stands for tighter binding, the high end for weaker binding. Regarding `Cc1ncc(Cn2cc(CCCC(=O)NO)nn2)c(N)n1` [Compound 24b], at Z. mobilis PDC, the inhibition constant (Ki) was 0.68 µM. Moreover, the IC50 at Z. mobilis PDC came out at 20 ± 2 µM; in data set [1] it was 1.7 ± 0.3 µM; in data set [2] it was 2 ± 0.6 µM. Further, half-maximal inhibition in “in vitro” (IC50 at 96 h) was put at 15 ± 3 µM. In the data set on HFF cells, the “Selectivity Index” value is 16.7.
Turning to `Cc1ncc(Cn2cc(CCCCC(=O)NO)nn2)c(N)n1` [Compound 24c], on Z. mobilis PDC, the Ki was 0.89 µM and the IC50 was found to be 25 ± 2 µM. In the data set “in vitro”, this molecule gave an IC50 at 96 h of 44 ± 4 µM. Besides, the “Selectivity Index” value in the data set on HFF cells is 14.7.
